Molecular target: T1, Trp-p8 (Homo sapiens, UniProt Q7Z2W7, T58I)
T1 construct: expressed in transfected cells
Test: Cell viability (ATP) assay for Trp-p8 antagonists: protection of CHO/Trp-p8 cells from toxic control agonist D-1607
Type: cell-based
Settings: Table 3, Formula VII antagonists; 10 μM compound plus toxic concentration of control agonist, CHO/Trp-p8 cells, 37° C.; ATP level relative to DMSO
Experimental: FIG. 4 is a graph depicting exemplary results from a primary screen for Trp-p8 antagonists using the ATP viability assay, described herein, with CHO/Trp-p8 cells at 37° C. CHO/Trp-p8 cells were exposed to compounds, at different concentrations, in 1% DMSO or 1% DMSO in combination with a toxic concentration of the Trp-p8 agonist 1607. The viability of cells was measured after 24-26 hours at 37° C. using the ATP assay.
As a primary screen for efficacy and specificity for agonists, both the non-transfected CHO and CHO/Trp-p8 cells were exposed to 10 μM of test compounds in 1% dimethylsulfoxide (DMSO) or 1% DMSO (control) in a 96-well black walled, black-bottomed, cell-culture treated plate. DMSO was the solvent for all of the compounds tested. After 24-26 hours at 37° C., the cells were lysed and ATP concentration determined via a chemiluminescence assay using a commercially available reagent kit—Cell Titer-Glo (Promega; Madison, Wis.). […] (EC50 is defined herein as the agonist concentration at which there is a 50% reduction in cell viability).
Trp-p8 antagonists were identified by employing a cell viability assay with CHO/Trp-p8 cells at 37° C. (see Example 7) with the following modification. Within the context of the present invention, compounds that protect CHO/Trp-p8 cells from the toxic effect of a control agonist thereby maintaining the viability of the CHO/Trp-p8 cell exposed to a Trp-p8 agonist is defined as antagonist. As a primary screen for antagonists, CHO/Trp-p8 cells were exposed to 10 μM of test compounds in 1% dimethylsulfoxide (DMSO) or 1% DMSO plus a toxic concentration of a control agonist, D-1607.

T1 sequence (Q7Z2W7 whole entry T58I): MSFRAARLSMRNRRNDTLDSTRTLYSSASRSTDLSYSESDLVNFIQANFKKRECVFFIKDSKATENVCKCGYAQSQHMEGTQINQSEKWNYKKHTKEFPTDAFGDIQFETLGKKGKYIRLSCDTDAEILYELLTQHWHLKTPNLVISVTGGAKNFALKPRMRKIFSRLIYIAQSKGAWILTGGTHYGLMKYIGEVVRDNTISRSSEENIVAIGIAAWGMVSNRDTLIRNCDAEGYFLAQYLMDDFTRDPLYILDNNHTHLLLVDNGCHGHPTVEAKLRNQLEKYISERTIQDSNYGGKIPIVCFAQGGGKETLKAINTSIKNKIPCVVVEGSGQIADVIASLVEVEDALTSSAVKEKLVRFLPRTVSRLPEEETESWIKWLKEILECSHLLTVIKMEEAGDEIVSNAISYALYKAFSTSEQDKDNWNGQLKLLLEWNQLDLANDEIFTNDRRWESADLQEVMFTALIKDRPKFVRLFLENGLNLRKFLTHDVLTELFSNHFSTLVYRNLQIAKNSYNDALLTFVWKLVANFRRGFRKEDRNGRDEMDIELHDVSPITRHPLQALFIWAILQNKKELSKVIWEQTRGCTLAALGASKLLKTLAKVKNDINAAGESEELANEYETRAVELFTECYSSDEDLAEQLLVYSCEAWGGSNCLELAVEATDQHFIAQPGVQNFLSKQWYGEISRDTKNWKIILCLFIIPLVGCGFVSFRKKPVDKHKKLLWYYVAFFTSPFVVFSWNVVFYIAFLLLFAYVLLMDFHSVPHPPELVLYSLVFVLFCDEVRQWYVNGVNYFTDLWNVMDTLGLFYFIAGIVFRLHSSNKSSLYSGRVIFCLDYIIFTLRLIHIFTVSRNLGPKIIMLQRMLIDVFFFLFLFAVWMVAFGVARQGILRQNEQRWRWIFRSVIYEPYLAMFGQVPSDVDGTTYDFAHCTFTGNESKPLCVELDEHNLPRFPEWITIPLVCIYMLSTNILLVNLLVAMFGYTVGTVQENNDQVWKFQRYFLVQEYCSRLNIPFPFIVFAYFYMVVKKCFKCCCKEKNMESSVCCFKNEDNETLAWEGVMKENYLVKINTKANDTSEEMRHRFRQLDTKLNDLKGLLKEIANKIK

SMILES | Rel. Viab. (%) at 10 μM [%]
c1ccc(Cn2ncc3c(N4CCN(c5ccccn5)CC4)ncnc32)cc1 [compound 13] | 91
O=[N+]([O-])c1ccc(N2CCN(c3ccc(C(F)(F)F)cc3[N+](=O)[O-])CC2)cc1NCc1ccccc1 [compound 27] | 87
O=[N+]([O-])c1cc(Cl)ccc1N1CCN(c2ccc([N+](=O)[O-])c3cccnc23)CC1 [compound 34] | 82
COc1ccccc1N1CCN(CC(O)COC2CC(C)CCC2C(C)C)CC1.Cl.Cl (centres unmarked) [compound 36] | 87
Clc1ccccc1N1CCN(c2ncnc3c2cnn3-c2ccccc2)CC1 [compound 51] | 100
c1ccc(CNc2nc(N3CCN(c4ccccc4)CC3)nc3ccccc23)cc1 [compound 67] | 102
Cc1nc(N2CCOCC2)nc(N2CCN(c3ccccc3)CC2)c1[N+](=O)[O-] [compound 69] | 106
Cc1cc(N2CCN(c3cc(N4CCN(CCO)CC4)ccc3[N+](=O)[O-])CC2)c2ccccc2n1 [compound 74] | 81
COc1ccc(N2CCN(CC(O)COC3CC(C)CCC3C(C)C)CC2)cc1.Cl.Cl (centres unmarked) [compound 93] | 111
Cc1ccc(C)n1-c1ccc(N2CCN(c3ccccc3)CC2)c([N+](=O)[O-])c1 [compound 103] | 99
O=[N+]([O-])c1cc(S(=O)(=O)C(F)(F)F)ccc1N1CCN(c2ccccc2)CC1 [compound 107] | 98
Fc1ccc(N2CCN(c3ncnc4c3cnn4-c3ccccc3)CC2)cc1 [compound 159] | 95
N#Cc1nc(COc2ccccc2F)oc1N1CCN(c2ccccc2)CC1 [compound 711] | 94
FC(F)(F)Oc1ccc(Nc2nc(N3CCCCCC3)nc(N3CCN(C45CC6CC(CC(C6)C4)C5)CC3)n2)cc1 [compound 809] | 89
OC(F)(F)Oc1ccc(Nc2nc(N3CCCCCC3)nc(N3CCN(C45CC6CC(CC(C6)C4)C5)CC3)n2)cc1 [compound 812] | 99
O=C1c2ccccc2-c2onc3c(N4CCN(C5CCCCC5)CC4)cc(Nc4ccc5c(c4)OCO5)c1c23 [compound 881] | 82
O=C1c2ccccc2-c2onc3c(N4CCN(C5CCCCC5)CC4)cc(Nc4ccc5c(c4)OCCO5)c1c23 [compound 882] | 86
Cc1ccc(C(c2sc3nc(C)nn3c2O)N2CCN(C(c3ccccc3)c3ccccc3)CC2)cc1 (centres unmarked) [compound 1019] | 87
Cc1nc2sc(C(c3ccc(Br)cc3)N3CCN(C(c4ccccc4)c4ccccc4)CC3)c(O)n2n1 (centres unmarked) [compound 1021] | 92
Cc1nc2sc(C(c3cccc(F)c3)N3CCN(C(c4ccccc4)c4ccccc4)CC3)c(O)n2n1 (centres unmarked) [compound 1026] | 92
Cc1nc2sc(C(c3cccc(O)c3)N3CCN(C(c4ccccc4)c4ccccc4)CC3)c(O)n2n1 (centres unmarked) [compound 1027] | 84
COc1cc(C(c2sc3nc(C)nn3c2O)N2CCN(C(c3ccccc3)c3ccccc3)CC2)cc(OC)c1OC (centres unmarked) [compound 1028] | 85
Cc1nc2sc(C(c3cccs3)N3CCN(C(c4ccccc4)c4ccccc4)CC3)c(O)n2n1 (centres unmarked) [compound 1039] | 84
O=C1CN(c2nc3ccccc3c(=O)n2Cc2ccccc2)CC(=O)N1CCc1ccccc1 [compound 1069] | 86
Cc1ccc(C2C(=O)N(C3CCC(C)CC3)CC(=O)N2C2CCCC2)cc1 (centres unmarked) [compound 1262] | 86
O=C1C(c2ccc(F)cc2Cl)N(C2CCCc3ccccc32)C(=O)CN1C1CCCCCC1 (centres unmarked) [compound 1280] | 87
O=C1C(c2ccc(Cl)cc2)N(C2CCCCCC2)C(=O)CN1C1CCCC1 (centres unmarked) [compound 1283] | 100
O=C1C(c2ccc(Cl)cc2)N(C2CCCCC2)C(=O)CN1C1CCCC1 (centres unmarked) [compound 1284] | 95
Cc1cc(N2CCN(Cc3ccc4c(c3)SCO4)CC2)n2nc(C)c(-c3ccc(Br)cc3)c2n1 [compound 1313] | 92
